From ChEMBL document CHEMBL3227999, “Synthesis and biological properties of N2-substituted spin-labeled analogues of actinomycin D” (J Med Chem, 1979)
The source made the active and inactive calls. The rule behind the calls is not given here. Numbered stars: 1 amine (or outer) side, 2 acyl side, 3 side chain; on linkers, the order of the positions; unused ones are H or OH. Bridge positions count the residues as written; N and C are the ends. Square brackets hold non-standard residues; d marks the D form. Peptide text beside a SMILES is read from it. I, II: the chains in the order shown. Actinocin(9to1) = Cc1c2oc3c(C)ccc(C(=O)[*:1])c3nc-2c(C(=O)[*:2])c(N)c1=O; NMeV = CN[C@H](C(=O)O)C(C)C; Sar = CNCC(=O)O

Experiments:
[1] = test system: P388; assay: Antitumor activity against mouse P388 cells allografted in CDF1 mouse assessed as survival at 0.18 mg/kg, ip administered on day 1, 5 and 9; format: functional; settings: route intraperitoneal
[2] = molecular target: T1, Bacterial DNA-directed RNA polymerase (Bacteria) (UniProt P0A8V2+P0A7Z4+P0A8T7+P0A800); assay: Inhibition of Escherichia coli DNA-dependent RNA polymerase at 0.25 ug/ml using calf thymus DNA as primer; format: protein-complex assay
T1 sequence (P0A7Z4 whole entry partner): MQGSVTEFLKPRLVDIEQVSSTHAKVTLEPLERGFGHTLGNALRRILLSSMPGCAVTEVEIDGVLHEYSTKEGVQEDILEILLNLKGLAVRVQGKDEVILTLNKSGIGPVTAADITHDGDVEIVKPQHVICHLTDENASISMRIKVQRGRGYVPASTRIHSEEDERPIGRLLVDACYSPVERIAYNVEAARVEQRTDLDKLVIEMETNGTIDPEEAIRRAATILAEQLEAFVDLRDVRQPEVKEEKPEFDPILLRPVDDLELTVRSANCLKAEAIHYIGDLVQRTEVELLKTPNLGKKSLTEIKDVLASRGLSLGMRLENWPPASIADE
T1 sequence (P0A800 2-91 partner limits assumed): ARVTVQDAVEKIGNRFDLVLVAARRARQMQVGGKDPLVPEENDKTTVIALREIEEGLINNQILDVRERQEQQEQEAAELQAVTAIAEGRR
T1 sequence (P0A8T7 whole entry partner): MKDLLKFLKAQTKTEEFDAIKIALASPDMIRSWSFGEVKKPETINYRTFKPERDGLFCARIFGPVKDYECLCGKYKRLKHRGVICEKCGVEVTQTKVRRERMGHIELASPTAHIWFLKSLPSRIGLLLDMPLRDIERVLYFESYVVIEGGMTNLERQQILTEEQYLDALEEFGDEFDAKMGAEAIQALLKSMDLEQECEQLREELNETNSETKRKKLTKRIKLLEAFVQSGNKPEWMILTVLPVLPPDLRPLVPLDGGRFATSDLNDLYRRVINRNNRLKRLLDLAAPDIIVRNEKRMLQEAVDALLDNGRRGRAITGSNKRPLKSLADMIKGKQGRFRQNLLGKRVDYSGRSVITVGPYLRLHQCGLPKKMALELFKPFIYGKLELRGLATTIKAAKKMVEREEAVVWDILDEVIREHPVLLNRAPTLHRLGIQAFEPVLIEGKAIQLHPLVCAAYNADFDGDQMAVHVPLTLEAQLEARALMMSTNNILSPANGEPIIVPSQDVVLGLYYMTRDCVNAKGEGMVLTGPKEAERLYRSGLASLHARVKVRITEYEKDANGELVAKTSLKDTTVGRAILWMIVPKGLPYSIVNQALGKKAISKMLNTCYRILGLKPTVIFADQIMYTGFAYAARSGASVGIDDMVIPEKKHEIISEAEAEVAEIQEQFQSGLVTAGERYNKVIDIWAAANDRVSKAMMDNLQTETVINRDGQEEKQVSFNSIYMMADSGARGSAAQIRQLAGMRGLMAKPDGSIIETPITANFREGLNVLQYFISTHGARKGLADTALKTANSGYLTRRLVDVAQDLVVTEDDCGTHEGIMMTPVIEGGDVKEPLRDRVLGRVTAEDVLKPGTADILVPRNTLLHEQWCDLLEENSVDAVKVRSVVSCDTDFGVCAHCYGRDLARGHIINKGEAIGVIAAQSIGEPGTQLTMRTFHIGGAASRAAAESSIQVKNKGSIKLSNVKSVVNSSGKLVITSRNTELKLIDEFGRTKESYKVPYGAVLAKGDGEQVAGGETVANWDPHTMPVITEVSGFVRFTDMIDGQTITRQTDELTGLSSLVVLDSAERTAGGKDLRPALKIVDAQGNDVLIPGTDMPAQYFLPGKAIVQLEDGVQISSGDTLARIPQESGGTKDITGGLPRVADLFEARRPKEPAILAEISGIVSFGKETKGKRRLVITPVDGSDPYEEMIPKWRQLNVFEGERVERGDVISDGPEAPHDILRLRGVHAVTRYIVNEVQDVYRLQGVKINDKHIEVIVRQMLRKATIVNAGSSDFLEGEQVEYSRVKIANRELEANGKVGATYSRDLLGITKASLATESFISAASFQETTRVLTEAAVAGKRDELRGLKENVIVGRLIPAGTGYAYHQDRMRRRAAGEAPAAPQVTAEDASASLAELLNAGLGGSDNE
T1 sequence (P0A8V2 whole entry): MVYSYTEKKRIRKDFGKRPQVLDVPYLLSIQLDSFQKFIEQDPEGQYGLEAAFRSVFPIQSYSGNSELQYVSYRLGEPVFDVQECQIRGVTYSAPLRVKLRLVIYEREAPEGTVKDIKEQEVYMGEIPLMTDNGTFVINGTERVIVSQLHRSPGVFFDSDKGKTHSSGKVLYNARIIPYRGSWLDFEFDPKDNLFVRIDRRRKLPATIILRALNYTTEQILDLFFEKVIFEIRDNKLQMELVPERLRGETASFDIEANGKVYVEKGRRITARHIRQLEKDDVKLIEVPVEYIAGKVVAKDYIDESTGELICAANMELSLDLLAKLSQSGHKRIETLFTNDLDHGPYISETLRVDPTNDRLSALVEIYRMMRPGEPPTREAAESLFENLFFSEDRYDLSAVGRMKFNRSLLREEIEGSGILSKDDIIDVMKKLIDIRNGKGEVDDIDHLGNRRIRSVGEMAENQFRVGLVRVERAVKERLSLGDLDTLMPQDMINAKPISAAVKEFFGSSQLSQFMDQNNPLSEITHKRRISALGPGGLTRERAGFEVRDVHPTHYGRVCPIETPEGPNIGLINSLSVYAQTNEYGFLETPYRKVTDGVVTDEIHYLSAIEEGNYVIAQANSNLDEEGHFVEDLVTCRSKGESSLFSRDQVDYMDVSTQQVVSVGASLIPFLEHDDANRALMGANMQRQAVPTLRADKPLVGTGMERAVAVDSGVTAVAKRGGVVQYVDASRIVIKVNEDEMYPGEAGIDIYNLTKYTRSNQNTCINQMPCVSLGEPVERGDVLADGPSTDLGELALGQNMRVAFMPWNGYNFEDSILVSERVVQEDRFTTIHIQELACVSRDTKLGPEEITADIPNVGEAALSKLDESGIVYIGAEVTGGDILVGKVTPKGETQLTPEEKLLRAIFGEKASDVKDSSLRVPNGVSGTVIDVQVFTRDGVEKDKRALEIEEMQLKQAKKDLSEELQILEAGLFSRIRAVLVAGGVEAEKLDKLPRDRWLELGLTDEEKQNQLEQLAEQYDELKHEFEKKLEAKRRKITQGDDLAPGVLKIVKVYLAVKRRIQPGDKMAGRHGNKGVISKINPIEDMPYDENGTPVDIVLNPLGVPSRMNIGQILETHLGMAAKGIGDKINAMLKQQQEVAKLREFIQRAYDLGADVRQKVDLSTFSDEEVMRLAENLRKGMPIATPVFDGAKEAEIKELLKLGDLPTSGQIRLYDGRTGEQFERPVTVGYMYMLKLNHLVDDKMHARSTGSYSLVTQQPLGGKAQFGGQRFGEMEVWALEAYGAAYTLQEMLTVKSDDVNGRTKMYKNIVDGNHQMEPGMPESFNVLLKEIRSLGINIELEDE

[3] = molecular target: T1, Bacterial DNA-directed RNA polymerase (Bacteria); assay: Inhibition of Escherichia coli DNA-dependent RNA polymerase at 2.5 ug/ml using calf thymus DNA as primer; format: protein-complex assay
[4] = test system: Mus musculus; assay: Toxicity in mouse P388 cells allografted CDF1 mouse assessed as mortality at 0.6 mg/kg, ip administered on day 1, 5 and 9; format: organism-based; design: dose 0.6 mg/kg, route intraperitoneal; settings: in vivo
[5] = test system: Mus musculus; assay: Toxicity in mouse P388 cells allografted CDF1 mouse assessed as weight loss at 0.18 mg/kg, ip administered on day 1, 5 and 9; format: organism-based; design: dose 0.18 mg/kg, route intraperitoneal; settings: in vivo
[6] = molecular target: T1, Bacterial DNA-directed RNA polymerase (Bacteria); assay: Inhibition of Escherichia coli DNA-dependent RNA polymerase at 2.5 ug/ml using Micrococcus luteus DNA as primer; format: protein-complex assay
[7] = molecular target: T1, Bacterial DNA-directed RNA polymerase (Bacteria); assay: Inhibition of Escherichia coli DNA-dependent RNA polymerase at 0.5 ug/ml using calf thymus DNA as primer; format: protein-complex assay
[8] = test system: L1210; assay: Cytotoxicity against mouse L1210 cells at 0.01 ug/ml after 48 hrs; format: functional; settings: L1210, 48 h
[9] = molecular target: Bacterial DNA-directed RNA polymerase (Bacteria, UniProt P0A7Z4+P0A800+P0A8T7+P0A8V2); assay: Inhibition of Escherichia coli DNA-dependent RNA polymerase; format: protein-complex assay
[10] = test system: L1210; assay: Cytotoxicity against mouse L1210 cells at 0.05 ug/ml after 48 hrs; format: functional; settings: L1210, 48 h
[11] = test system: P388; assay: Antitumor activity against mouse P388 cells allografted in CDF1 mouse assessed as survival at 0.27 mg/kg, ip administered on day 1, 5 and 9; format: functional; settings: route intraperitoneal
[12] = test system: P388; assay: Antitumor activity against mouse P388 cells allografted in CDF1 mouse assessed as survival at 0.4 mg/kg, ip administered on day 1, 5 and 9; format: functional; settings: route intraperitoneal
[13] = test system: L1210; assay: Cytotoxicity against mouse L1210 cells at 0.001 ug/ml after 48 hrs; format: functional; settings: L1210, 48 h
[14] = molecular target: T1, Bacterial DNA-directed RNA polymerase (Bacteria); assay: Inhibition of Escherichia coli DNA-dependent RNA polymerase at 5 ug/ml using Micrococcus luteus DNA as primer; format: protein-complex assay
[15] = molecular target: T1, Bacterial DNA-directed RNA polymerase (Bacteria); assay: Inhibition of Escherichia coli DNA-dependent RNA polymerase at 0.05 ug/ml using calf thymus DNA as primer; format: protein-complex assay
[16] = test system: L1210; assay: Cytotoxicity against mouse L1210 cells at 0.5 ug/ml after 48 hrs; format: functional; settings: L1210, 48 h
[17] = test system: Calf thymus DNA; assay: Binding affinity to calf thymus DNA at 1 x 10^-5 M by thermal denaturation assay; format: nucleic-acid assay; settings: Bos taurus
[18] = test system: Mus musculus; assay: Toxicity in mouse P388 cells allografted CDF1 mouse assessed as mortality at 0.27 mg/kg, ip administered on day 1, 5 and 9; format: organism-based; design: dose 0.27 mg/kg, route intraperitoneal; settings: in vivo
[19] = molecular target: T1, Bacterial DNA-directed RNA polymerase (Bacteria); assay: Inhibition of Escherichia coli DNA-dependent RNA polymerase at 0.25 ug/ml using Micrococcus luteus DNA as primer; format: protein-complex assay
[20] = molecular target: T1, Bacterial DNA-directed RNA polymerase (Bacteria); assay: Inhibition of Escherichia coli DNA-dependent RNA polymerase at 1 ug/ml using calf thymus DNA as primer; format: protein-complex assay
[21] = molecular target: T1, Bacterial DNA-directed RNA polymerase (Bacteria); assay: Inhibition of Escherichia coli DNA-dependent RNA polymerase at 0.1 ug/ml using calf thymus DNA as primer; format: protein-complex assay
[22] = test system: L1210; assay: Cytotoxicity against mouse L1210 cells at 10 ug/ml after 48 hrs; format: functional; settings: L1210, 48 h
[23] = molecular target: T1, Bacterial DNA-directed RNA polymerase (Bacteria); assay: Inhibition of Escherichia coli DNA-dependent RNA polymerase at 20 ug/ml using calf thymus DNA as primer; format: protein-complex assay
[24] = test system: P388; assay: Antitumor activity against mouse P388 cells allografted in CDF1 mouse assessed as survival at 0.08 mg/kg, ip administered on day 1, 5 and 9; format: functional; settings: route intraperitoneal
[25] = molecular target: T1, Bacterial DNA-directed RNA polymerase (Bacteria); assay: Inhibition of Escherichia coli DNA-dependent RNA polymerase at 0.1 ug/ml using Micrococcus luteus DNA as primer; format: protein-complex assay
[26] = test system: L1210; assay: Cytotoxicity against mouse L1210 cells at 1 ug/ml after 48 hrs; format: functional; settings: L1210, 48 h
[27] = molecular target: T1, Bacterial DNA-directed RNA polymerase (Bacteria); assay: Inhibition of Escherichia coli DNA-dependent RNA polymerase at 1 ug/ml using Micrococcus luteus DNA as primer; format: protein-complex assay
[28] = molecular target: T1, Bacterial DNA-directed RNA polymerase (Bacteria); assay: Inhibition of Escherichia coli DNA-dependent RNA polymerase at 10 ug/ml using calf thymus DNA as primer; format: protein-complex assay
[29] = test system: Calf thymus DNA; assay: Binding affinity to calf thymus DNA at 1 x 10^-5 M after 30 mins by circular dichroism analysis; format: nucleic-acid assay; settings: Bos taurus
[30] = test system: Mus musculus; assay: Toxicity in mouse P388 cells allografted CDF1 mouse assessed as mortality at 0.4 mg/kg, ip administered on day 1, 5 and 9; format: organism-based; design: dose 0.4 mg/kg, route intraperitoneal; settings: in vivo
[31] = test system: P388; assay: Antitumor activity against mouse P388 cells allografted in CDF1 mouse assessed as survival at 0.6 mg/kg, ip administered on day 1, 5 and 9; format: functional; settings: route intraperitoneal
[32] = test system: P388; assay: Antitumor activity against mouse P388 cells allografted in CDF1 mouse assessed as survival at 0.12 mg/kg, ip administered on day 1, 5 and 9; format: functional; settings: route intraperitoneal
[33] = molecular target: T1, Bacterial DNA-directed RNA polymerase (Bacteria); assay: Inhibition of Escherichia coli DNA-dependent RNA polymerase at 0.05 ug/ml using Micrococcus luteus DNA as primer; format: protein-complex assay
[34] = molecular target: T1, Bacterial DNA-directed RNA polymerase (Bacteria); assay: Inhibition of Escherichia coli DNA-dependent RNA polymerase at 20 ug/ml using Micrococcus luteus DNA as primer; format: protein-complex assay
[35] = molecular target: T1, Bacterial DNA-directed RNA polymerase (Bacteria); assay: Inhibition of Escherichia coli DNA-dependent RNA polymerase at 10 ug/ml using Micrococcus luteus DNA as primer; format: protein-complex assay
[36] = molecular target: T1, Bacterial DNA-directed RNA polymerase (Bacteria); assay: Inhibition of Escherichia coli DNA-dependent RNA polymerase at 0.5 ug/ml using Micrococcus luteus DNA as primer; format: protein-complex assay
[37] = test system: L1210; assay: Cytotoxicity against mouse L1210 cells at 5 ug/ml after 48 hrs; format: functional; settings: L1210, 48 h
[38] = test system: L1210; assay: Cytotoxicity against mouse L1210 cells at 0.1 ug/ml after 48 hrs; format: functional; settings: L1210, 48 h
[39] = molecular target: T1, Bacterial DNA-directed RNA polymerase (Bacteria); assay: Inhibition of Escherichia coli DNA-dependent RNA polymerase at 5 ug/ml using calf thymus DNA as primer; format: protein-complex assay

## Cc1c2oc3c(C)ccc(C(=O)N[C@@H]4C(=O)N[C@H](C(C)C)C(=O)N5CCC[C@H]5C(=O)N(C)CC(=O)N(C)[C@@H](C(C)C)C(=O)O[C@@H]4C)c3nc-2c(C(=O)N[C@@H]2C(=O)N[C@H](C(C)C)C(=O)N3CCC[C@H]3C(=O)N(C)CC(=O)N(C)[C@@H](C(C)C)C(=O)O[C@@H]2C)c(N)c1=O [DACTINOMYCIN] (I: T[dV]P[Sar][NMeV] / II: T[dV]P[Sar][NMeV]; ester I:1-I:C, II:1-II:C; linker I:N-II:N via Actinocin(9to1))
[1]
  Survival: 18 days
  T/C: 171%
[2]
  inhibition: 62%
[3]
  inhibition: 89%
[4]
  Activity: Toxic
[5]
  Activity: Toxic
[6]
  inhibition: 92%
[7]
  inhibition: 61%
[8]
  inhibition at 0.01 µg/mL: 57%
[9]
  IC50: 159 nM
[10]
  inhibition at 0.05 µg/mL: 78%
[11]
  Survival: 10 days
  T/C: 95%
[12]
  Survival: 8 days
  T/C: 76%
[13]
  inhibition at 0.001 µg/mL: 51%
[14]
  inhibition: 95%
[15]
  inhibition: 17%
[16]
  inhibition at 0.5 µg/mL: 99%
[17]
  ΔTm: 8.7 °C
[18]
  Activity: Toxic
[19]
  inhibition: 44%
[20]
  inhibition: 79%
[21]
  inhibition: 30%
[22]
  inhibition at 10 µg/mL: 98%
[23]
  inhibition: 100%
[24]
  Survival: 15 days
  T/C: 143%
[25]
  inhibition: 16%
[26]
  inhibition at 1 µg/mL: 97%
[27]
  inhibition: 72%
[28]
  inhibition: 96%
[29]
  Activity: Active
[30]
  Activity: Toxic
[31]
  Survival: 5 days
  T/C: 48%
[32]
  Survival: 19 days
  T/C: 181%
[33]
  inhibition: 7%
[34]
  inhibition: 99%
[35]
  inhibition: 99%
[36]
  inhibition: 54%
[37]
  inhibition at 5 µg/mL: 99%
[38]
  inhibition at 0.1 µg/mL: 78%
[39]
  inhibition: 93%
